Data reported in ChEMBL document CHEMBL1146565, “Intercedensides A-C, three new cytotoxic triterpene glycosides from the sea cucumber Mensamaria intercedens Lampert” (2003).

Tested on: Pyricularia oryzae
Test: Antimicrobial activity against Pyricularia oryzae P-2b assessed as drug concentration causing minimum morphological deformation
Format: functional

## O=c1[nH]cc(F)c(=O)[nH]1 [FLUOROURACIL]
  Activity: <=5 ug ml-1
